Active and inactive are the calls of the source. The rule behind the calls is not given here.
Legend:
Aromatase = biological target: T1, Aromatase (Homo sapiens, UniProt P11511); experiment: Inhibition of aromatase
T1 sequence (P11511 whole entry): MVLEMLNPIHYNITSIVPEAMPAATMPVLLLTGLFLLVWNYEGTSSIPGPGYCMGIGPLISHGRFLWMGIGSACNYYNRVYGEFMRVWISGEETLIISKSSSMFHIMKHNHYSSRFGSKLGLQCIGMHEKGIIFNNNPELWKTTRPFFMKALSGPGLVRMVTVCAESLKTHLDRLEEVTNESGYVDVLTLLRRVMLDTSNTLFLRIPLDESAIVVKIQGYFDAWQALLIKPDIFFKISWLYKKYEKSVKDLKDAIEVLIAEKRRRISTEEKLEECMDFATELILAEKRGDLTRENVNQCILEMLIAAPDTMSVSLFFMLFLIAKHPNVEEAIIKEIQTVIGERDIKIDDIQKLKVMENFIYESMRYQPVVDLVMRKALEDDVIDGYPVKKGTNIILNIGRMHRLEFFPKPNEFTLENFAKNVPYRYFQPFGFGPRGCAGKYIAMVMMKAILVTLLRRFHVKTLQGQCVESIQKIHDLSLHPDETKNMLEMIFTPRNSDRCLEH

HepG2 = experiment: Antiproliferative activity against human HepG2 cells assessed as cell growth upto 65 uM after 4 days by sulforhodamine B assay; format: functional, cell-based
Cytochrome P450 2C8 = biological target: T2, Cytochrome P450 2C8 (Homo sapiens, UniProt P10632); experiment: Inhibition of CYP2C8; format: ADME
T2 sequence (P10632 whole entry): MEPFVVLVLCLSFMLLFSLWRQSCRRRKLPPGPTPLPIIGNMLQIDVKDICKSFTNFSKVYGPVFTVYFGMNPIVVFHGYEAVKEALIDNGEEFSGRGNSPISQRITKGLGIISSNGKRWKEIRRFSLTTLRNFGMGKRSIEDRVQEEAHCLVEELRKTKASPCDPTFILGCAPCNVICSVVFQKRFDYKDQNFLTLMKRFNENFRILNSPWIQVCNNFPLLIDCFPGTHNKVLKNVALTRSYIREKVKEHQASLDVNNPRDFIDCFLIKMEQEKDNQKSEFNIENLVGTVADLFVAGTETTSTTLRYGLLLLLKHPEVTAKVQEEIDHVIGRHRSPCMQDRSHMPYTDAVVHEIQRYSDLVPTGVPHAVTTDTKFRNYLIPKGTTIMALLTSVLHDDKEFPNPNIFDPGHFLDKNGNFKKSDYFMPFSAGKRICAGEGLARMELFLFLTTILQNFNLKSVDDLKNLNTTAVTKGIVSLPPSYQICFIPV

Cytochrome P450 1A1 = biological target: T3, Cytochrome P450 1A1 (Homo sapiens, UniProt P04798); experiment: Inhibition of CYP1A1; format: ADME
T3 sequence (P04798 whole entry): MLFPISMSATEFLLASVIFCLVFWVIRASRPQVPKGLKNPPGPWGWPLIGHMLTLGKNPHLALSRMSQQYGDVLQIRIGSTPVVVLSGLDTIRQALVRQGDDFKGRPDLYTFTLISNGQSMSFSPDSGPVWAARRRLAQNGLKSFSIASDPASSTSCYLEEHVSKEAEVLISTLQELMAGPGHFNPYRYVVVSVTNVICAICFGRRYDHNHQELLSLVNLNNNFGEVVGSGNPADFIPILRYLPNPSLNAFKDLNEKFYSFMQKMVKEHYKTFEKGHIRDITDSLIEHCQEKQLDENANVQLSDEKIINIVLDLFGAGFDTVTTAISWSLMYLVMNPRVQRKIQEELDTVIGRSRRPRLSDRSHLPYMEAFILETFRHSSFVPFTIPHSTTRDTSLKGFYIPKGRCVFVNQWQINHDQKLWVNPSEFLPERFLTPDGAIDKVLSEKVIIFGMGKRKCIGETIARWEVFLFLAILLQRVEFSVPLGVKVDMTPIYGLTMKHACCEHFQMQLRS

LNCaP = experiment: Antiproliferative activity against human LNCaP 1740 cells assessed as cell growth after 4 days by sulforhodamine B assay; format: functional, cell-based; conditions: 96 h
Lu1 = experiment: Antiproliferative activity against human LU1 cells assessed as cell growth upto 65 uM after 4 days by sulforhodamine B assay; format: functional, cell-based
MCF7 = experiment: Antiproliferative activity against human MCF7 cells assessed as cell growth after 4 days by sulforhodamine B assay; format: functional, cell-based; conditions: MCF7, 96 h
Cytochrome P450 3A4 = Cytochrome P450 3A4 (Homo sapiens, UniProt P08684); experiment: Inhibition of CYP3A4; format: ADME
Chain of Cytochrome P450 3A4 (P08684 whole entry): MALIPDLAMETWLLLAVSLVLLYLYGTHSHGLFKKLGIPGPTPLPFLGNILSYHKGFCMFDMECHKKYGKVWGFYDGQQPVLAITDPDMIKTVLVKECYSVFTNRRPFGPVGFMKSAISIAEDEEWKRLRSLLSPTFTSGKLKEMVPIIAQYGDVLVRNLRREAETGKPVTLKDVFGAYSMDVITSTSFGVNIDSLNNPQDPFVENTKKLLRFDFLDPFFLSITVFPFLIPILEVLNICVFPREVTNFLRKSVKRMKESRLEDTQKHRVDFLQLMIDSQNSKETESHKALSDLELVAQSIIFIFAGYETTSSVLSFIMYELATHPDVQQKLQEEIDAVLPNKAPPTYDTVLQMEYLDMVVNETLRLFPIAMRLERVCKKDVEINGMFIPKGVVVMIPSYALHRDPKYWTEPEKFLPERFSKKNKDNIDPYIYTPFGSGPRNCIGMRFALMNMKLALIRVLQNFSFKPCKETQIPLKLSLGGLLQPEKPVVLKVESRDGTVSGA

SMILES | IC50 (Aromatase) | Activity (HepG2) | IC50 (Cytochrome P450 2C8) | IC50 (Cytochrome P450 1A1) | IC50 (LNCaP) | Activity (Lu1) | IC50 (MCF7) | IC50 (Cytochrome P450 3A4)
C[C@@H]1O[C@@H](O[C@H]2[C@H](Oc3cc(O)c4c(c3)O[C@H](c3ccc(O)cc3)CC4=O)O[C@H](CO)[C@@H](O)[C@@H]2O)[C@H](O)[C@H](O)[C@H]1O [NARINGIN] | 5 µM | – | – | – | – | – | – | –
CCCCC[C@H]1OC(=O)c2ccc(OC)cc2[C@H]1OC(C)=O | – | inactive | > 65 µM | 38 µM | 57.5 µM | inactive | 66.9 µM | > 65 µM

— ChEMBL document CHEMBL1157393, “Selective inhibition of aromatase by a dihydroisocoumarin from Xyris pterygoblephara” (J Nat Prod, 2008)
